# Laboratory results reported in patent US12685315B2, “Herbicidal combination” (UPL do Brasil Industria e Comercio de Insumos Agropecuarios …, priority 2019, dated 2026).
# Columns and labels:
# [1] = system: Cenchrus echinatus (CCHEC); assay: Field trial of triple mixes of amicarbazone, pre and post-emergence weed control; type: in vivo
# Experimental: (§1) Field trials were done to evaluate the efficacy and synergism of the triple mixes of amicarbazone with other herbicides for the control of weeds in pre and post-emergence application.
# (§2) The composition of the present invention was applied. This test was performed for species of weeds: Grasses namely BRADC=Brachiaria decumbens, CCHEC=Cenchrus echinatus, ELEIN=Eleusine indica, TRCIN=Digitaria insularis and Broadleaves namely IAQGR=Ipomoea grandifolia, EPHHL=Euphorbia heterophylla, COMBE=Commelina benghalensis. Data were collected at various period after application of the composition to the soil and calculated.
# [2] = system: Brachiaria decumbens (BRADC); assay: as above; type: in vivo
# Experimental: as §1, §2
# [3] = system: Ipomoea grandifolia (IAQGR); assay: Field trial of triple mixes of amicarbazone, pre-emergence weed control; type: in vivo
# Experimental: as §1, §2
# [4] = system: Eleusine indica; assay: Field trial of triple mixes of amicarbazone, pre and post-emergence weed control; type: in vivo; settings: Table 8, dose g ai/ha: Amicarbazone 250, Sulfentrazone 150, Diuron 250, mix 250 + 150 + 250
# Experimental: as §1, §2
# [5] = system: Euphorbia heterophylla; assay: Field trial of triple mixes of amicarbazone, pre-emergence weed control; type: in vivo; settings: dose g ai/ha: Amicarbazone 250, Sulfentrazone 150, Diuron 250, mix 250 + 150 + 250
# Experimental: as §1, §2
# [6] = system: Digitaria insularis; assay: Field trial of triple mixes of amicarbazone, post-emergence weed control; type: in vivo; settings: dose g ai/ha: Amicarbazone 75, S-metolachlor 300, Atrazine 250, mix 75 + 300 + 250
# Experimental: as §1, §2
# [7] = system: yellow nutsedge; assay: Field trial, post emergence, efficacy on yellow nutsedge (Blacksburg, VA); type: in vivo, Cyperus esculentus; settings: 2-way mixes 0.5X, 3-way mix 0.33X; for Yellow nut sedge at 29 DAT (Percentage weed cover): dosage: singles 1X; for Yellow nut sedge at 29 DAT (Percentage Control): post emergence, dosage: singles 1 X
# Experimental: A field trial was conducted to evaluate effectiveness of the combinations of three active ingredients according to the invention when used post emergence, at different rates, compared to industry standards—stand alone and 2 way mixture molecules for efficacy of yellow nutsedge. The active ingredient combination used in the trial was bentazon+halosulfuron+sulfentrazone. The trial was conducted in Blacksburg, VA and was initiated on June 6 under given protocol. The plots were in fallow area primarily covered with yellow nutsedge and tall fescue and were sprayed at 4 week intervals. (2 applications total). The application dosages of the herbicides, when used in isolation and when used in the combinations were as follows: […]
# [8] = Table 2, Post-Emergence, 7 DAA, dose g ai/ha: Amicarbazone 75, Isoxaflutole 15, Atrazine 250, mix 75 + 15 + 250
# [9] = Table 2, Post-Emergence, 28 DAA, dose g ai/ha: Amicarbazone 75, Isoxaflutole 15, Atrazine 250, mix 75 + 15 + 250
# [10] = Table 2, Post-Emergence, 35 DAA, dose g ai/ha: Amicarbazone 75, Isoxaflutole 15, Atrazine 250, mix 75 + 15 + 250
# [11] = Table 1, Post-Emergence, 7 DAA, dose g ai/ha: Amicarbazone 75, Isoxaflutole 15, Atrazine 250, mix 75 + 15 + 250
# [12] = Table 1, Post-Emergence, 21 DAA, dose g ai/ha: Amicarbazone 75, Isoxaflutole 15, Atrazine 250, mix 75 + 15 + 250
# [13] = Table 1, Post-Emergence, 28 DAA, dose g ai/ha: Amicarbazone 75, Isoxaflutole 15, Atrazine 250, mix 75 + 15 + 250
# [14] = Table 1, Pre-Emergence, 7 DAA, dose g ai/ha: Amicarbazone 75, Isoxaflutole 15, Atrazine 250, mix 75 + 15 + 250
# [15] = Table 1, Pre-Emergence, 21 DAA, dose g ai/ha: Amicarbazone 75, Isoxaflutole 15, Atrazine 250, mix 75 + 15 + 250
# [16] = Table 1, Pre-Emergence, 28 DAA, dose g ai/ha: Amicarbazone 75, Isoxaflutole 15, Atrazine 250, mix 75 + 15 + 250
# [17] = Table 3, 14 DAA, dose g ai/ha: Amicarbazone 75, Isoxaflutole 15, Atrazine 250, mix 75 + 15 + 250
# [18] = Table 3, 21 DAA, dose g ai/ha: Amicarbazone 75, Isoxaflutole 15, Atrazine 250, mix 75 + 15 + 250
# [19] = Table 3, 28 DAA, dose g ai/ha: Amicarbazone 75, Isoxaflutole 15, Atrazine 250, mix 75 + 15 + 250
# [20] = Table 6, Post-Emergence, 21 DAA, dose g ai/ha: Amicarbazone 250, Sulfentrazone 150, Diuron 250, mix 250 + 150 + 250
# [21] = Table 6, Post-Emergence, 28 DAA, dose g ai/ha: Amicarbazone 250, Sulfentrazone 150, Diuron 250, mix 250 + 150 + 250
# [22] = Table 6, Post-Emergence, 35 DAA, dose g ai/ha: Amicarbazone 250, Sulfentrazone 150, Diuron 250, mix 250 + 150 + 250
# [23] = Table 6, Pre-Emergence, 21 DAA, dose g ai/ha: Amicarbazone 250, Sulfentrazone 150, Diuron 250, mix 250 + 150 + 250
# [24] = Table 6, Pre-Emergence, 28 DAA, dose g ai/ha: Amicarbazone 250, Sulfentrazone 150, Diuron 250, mix 250 + 150 + 250
# [25] = Table 6, Pre-Emergence, 35 DAA, dose g ai/ha: Amicarbazone 250, Sulfentrazone 150, Diuron 250, mix 250 + 150 + 250
# [26] = Table 5, Post-Emergence, 21 DAA, dose g ai/ha: Amicarbazone 250, Clomazone 250, Diuron 250, mix 250 + 250 + 250
# [27] = Table 5, Post-Emergence, 28 DAA, dose g ai/ha: Amicarbazone 250, Clomazone 250, Diuron 250, mix 250 + 250 + 250
# [28] = Table 5, Post-Emergence, 35 DAA, dose g ai/ha: Amicarbazone 250, Clomazone 250, Diuron 250, mix 250 + 250 + 250
# [29] = Table 5, Pre-Emergence, 21 DAA, dose g ai/ha: Amicarbazone 250, Clomazone 250, Diuron 250, mix 250 + 250 + 250
# [30] = Table 5, Pre-Emergence, 28 DAA, dose g ai/ha: Amicarbazone 250, Clomazone 250, Diuron 250, mix 250 + 250 + 250
# [31] = Table 5, Pre-Emergence, 35 DAA, dose g ai/ha: Amicarbazone 250, Clomazone 250, Diuron 250, mix 250 + 250 + 250
# [32] = Table 4, 7 DAA, dose g ai/ha: Amicarbazone 250, Clomazone 250, Diuron 250, mix 250 + 250 + 250
# [33] = Table 4, 14 DAA, dose g ai/ha: Amicarbazone 250, Clomazone 250, Diuron 250, mix 250 + 250 + 250
# [34] = Table 4, 28 DAA, dose g ai/ha: Amicarbazone 250, Clomazone 250, Diuron 250, mix 250 + 250 + 250
structure (smiles),measurement,setting,value
CS(=O)(=O)c1cc(C(F)(F)F)ccc1C(=O)c1cnoc1C1CC1 [Isoxaflutole],% Control,[1]; [8],68.8%
same,% Control,[1]; [9],91.3%
same,% Control,[1]; [10],93.3%
same,% Control,[2]; [11],66.3%
same,% Control,[2]; [12],65.0%
same,% Control,[2]; [13],68.8%
same,% Control,[2]; [14],86.3%
same,% Control,[2]; [15],53.8%
same,% Control,[2]; [16],50.0%
same,% Control,[3]; [17],15.0%
same,% Control,[3]; [18],0.0%
same,% Control,[3]; [19],0.0%
CN(C)C(=O)Nc1ccc(Cl)c(Cl)c1 [Diuron],% Control,[1]; [20],38.8%
same,% Control,[1]; [21],35.0%
same,% Control,[1]; [22],28.8%
same,% Control,[1]; [23],0.0%
same,% Control,[1]; [24],0.0%
same,% Control,[1]; [25],0.0%
same,% Control,[2]; [26],81.3%
same,% Control,[2]; [27],75.0%
same,% Control,[2]; [28],76.3%
same,% Control,[2]; [29],0.0%
same,% Control,[2]; [30],0.0%
same,% Control,[2]; [31],0.0%
same,% Control,"[4]; Post-Emergence, 14 DAA",53.8%
same,% Control,"[4]; Post-Emergence, 21 DAA",35.0%
same,% Control,"[4]; Post-Emergence, 28 DAA",30.0%
same,% Control,"[4]; Pre-Emergence, 14 DAA",0.0%
same,% Control,"[4]; Pre-Emergence, 21 DAA",0.0%
same,% Control,"[4]; Pre-Emergence, 28 DAA",0.0%
same,% Control,[3]; [32],10.0%
same,% Control,[3]; [33],0.0%
same,% Control,[3]; [34],0.0%
same,% Control,"[5]; Table 7, 7 DAA",0.0%
same,% Control,"[5]; Table 7, 14 DAA",0.0%
same,% Control,"[5]; Table 7, 21 DAA",0.0%
CCNc1nc(Cl)nc(NC(C)C)n1 [Atrazine],% Control,[1]; [8],47.5%
same,% Control,[1]; [9],26.3%
same,% Control,[1]; [10],23.8%
same,% Control,[2]; [11],37.5%
same,% Control,[2]; [12],21.3%
same,% Control,[2]; [13],23.8%
same,% Control,[2]; [14],0.0%
same,% Control,[2]; [15],0.0%
same,% Control,[2]; [16],0.0%
same,% Control,[3]; [17],0.0%
same,% Control,[3]; [18],0.0%
same,% Control,[3]; [19],0.0%
same,% Control,"[6]; Table 9, 21 DAA",21.3%
same,% Control,"[6]; Table 9, 28 DAA",13.8%
same,% Control,"[6]; Table 9, 35 DAA",7.5%
Cc1nn(-c2cc(NS(C)(=O)=O)c(Cl)cc2Cl)c(=O)n1C(F)F [Sulfentrazone],Yellow nut sedge at 29 DAT (Percentage weed cover),"[7]; 05/07, untreated 59",9%
same,Yellow nut sedge at 29 DAT (Percentage Control),[7]; 05/07,75%
same,Yellow nut sedge at 29 DAT (Percentage weed cover),"[7]; 13/06, untreated 50",44%
same,Yellow nut sedge at 29 DAT (Percentage Control),[7]; 13/06,58%
same,Yellow nut sedge at 29 DAT (Percentage weed cover),"[7]; 20/6, untreated 49",11%
same,Yellow nut sedge at 29 DAT (Percentage Control),[7]; 20/6,73%
same,% Control,[1]; [20],86.3%
same,% Control,[1]; [21],83.8%
same,% Control,[1]; [22],82.5%
same,% Control,[1]; [23],17.5%
same,% Control,[1]; [24],13.8%
same,% Control,[1]; [25],9.5%
same,% Control,"[4]; Post-Emergence, 14 DAA",70.0%
same,% Control,"[4]; Post-Emergence, 21 DAA",63.8%
same,% Control,"[4]; Post-Emergence, 28 DAA",55.0%
same,% Control,"[4]; Pre-Emergence, 14 DAA",93.3%
same,% Control,"[4]; Pre-Emergence, 21 DAA",96.5%
same,% Control,"[4]; Pre-Emergence, 28 DAA",92.0%
same,% Control,"[5]; Table 7, 7 DAA",0.0%
same,% Control,"[5]; Table 7, 14 DAA",10.0%
same,% Control,"[5]; Table 7, 21 DAA",17.5%
CC1(C)CON(Cc2ccccc2Cl)C1=O [Clomazone],% Control,[2]; [26],71.3%
same,% Control,[2]; [27],63.8%
same,% Control,[2]; [28],61.3%
same,% Control,[2]; [29],89.5%
same,% Control,[2]; [30],86.5%
same,% Control,[2]; [31],86.3%
same,% Control,[3]; [32],57.5%
same,% Control,[3]; [33],41.3%
same,% Control,[3]; [34],39.5%
COc1cc(OC)nc(NC(=O)NS(=O)(=O)c2c(C(=O)O)c(Cl)nn2C)n1 [Halosulfuron],Yellow nut sedge at 29 DAT (Percentage weed cover),"[7]; 05/07, untreated 59",8%
same,Yellow nut sedge at 29 DAT (Percentage Control),[7]; 05/07,81%
same,Yellow nut sedge at 29 DAT (Percentage weed cover),"[7]; 13/06, untreated 50",50%
same,Yellow nut sedge at 29 DAT (Percentage Control),[7]; 13/06,36%
same,Yellow nut sedge at 29 DAT (Percentage weed cover),"[7]; 20/6, untreated 49",16%
same,Yellow nut sedge at 29 DAT (Percentage Control),[7]; 20/6,60%
CC(C)N1C(=O)c2ccccc2NS1(=O)=O [Bentazone],Yellow nut sedge at 29 DAT (Percentage weed cover),"[7]; 05/07, untreated 59",10%
same,Yellow nut sedge at 29 DAT (Percentage Control),[7]; 05/07,76%
same,Yellow nut sedge at 29 DAT (Percentage weed cover),"[7]; 13/06, untreated 50",40%
same,Yellow nut sedge at 29 DAT (Percentage Control),[7]; 13/06,65%
same,Yellow nut sedge at 29 DAT (Percentage weed cover),"[7]; 20/6, untreated 49",8%
same,Yellow nut sedge at 29 DAT (Percentage Control),[7]; 20/6,75%
CCc1cccc(C)c1N(C(=O)CCl)[C@@H](C)COC [S-metolachlor],% Control,"[6]; Table 9, 21 DAA",0.0%
same,% Control,"[6]; Table 9, 28 DAA",0.0%
same,% Control,"[6]; Table 9, 35 DAA",0.0%
